According to patent EP4310093A1, “AMINO ACID DERIVATIVE, PREPARATION METHOD THEREFOR, AND PHARMACEUTICAL COMPOSITION FOR TREATING HEPATITIS, COMPRISING SAME” (priority 2021, dated 2022):

Columns and labels:
HBV [1] = assay: Inhibition of intracellular HBV virus invasion, HBeAg ELISA analysis; assay type: cell-based; settings: 20 µM, HepG2-NTCP cell line, HBV 3000 Geq/cell, O.D. at 450 nm
Method: (§1) In order to evaluate the ability to inhibit intracellular HBV virus entry (invasion), Enzyme-linked immunosorbent assay (ELISA) analysis to measure HBeAg, which is associated with high infectivity as an antigen in the HBV virus core portion, and Southern blot analysis to measure DNA of HBV were performed.
(§2) Specifically, the HepG2-NTCP cell line was cultured on a 6-well plate, incubation was performed overnight, HBV inhibitors were treated at a concentration of 20 µM, and the positive control Myrcludex-B (MyrB) was treated at a concentration of 200 nM, followed by culture for 24 hours. After HBV infection into the cells to make HBV 3000 genome equivalent per ml/cell (Geq/cell), the cell culture medium was replaced (medium changing, MC) a day after the viral infection to remove the virus unattached to cell membranes. In order to measure an amount of virus that entered the cell, medium changing (MC) was performed once more 4 days after viral infection. 2 days after replacement, HBeAg ELISA analysis was performed using a supernatant, and Southern blot analysis was performed with cell pellets.
HBeAg ELISA analysis was performed using an HBeAg ELISA kit (sanbio, Wantai HBeAg ELISA, cat#WB-2496) for the supernatant obtained by the method in Experimental Example 4-1.
First, a negative control group (Mock), positive control group (MyrB), and samples according to the present disclosure were loaded, by 50 µl each to be triplicate, onto a 96-well plate coated with capture Ab. In this case, Example 1 (LCA-ILE), Example 44 (LCA-Val), Example 52 (LCA-Tyr), Example 51 (LCA-Ser), Example 55 (LCA-Glu), Example 2 (UDCA-Ile), Example 3 (UDCA-Val), Example 25 (LCA-Val-Trp), Example 10 (DCA-Ile), Comparative Example 1 (LCA), and Comparative Example 2 (UDCA) were used as the sample.
The HRP-conjugated detection antibody was loaded into each well by 50 µl, followed by a reaction at 37°C for 30 minutes. Washing buffer (1X PBS, 0.5% Tween20) was added by 200 µl, and washing was performed 5 times. 50 µl of chromogen solution A and 50 µl of chromogen solution B were added to each well, and a reaction was carried out in the darkness at 37°C for 15 minutes. The stop solution was added to each well by 50 µl each to stop the reaction, and the amount of HBeAg was measured by measuring the absorbance (optical density, O.D.) level in the 450 nm wavelength band.

HBV [2] = assay: Inhibition of intracellular HBV virus invasion, Southern blot analysis; assay type: cell-based; settings: for amount of HBeAg DNA detected compared to the negative control group (Mock): 20 µM, HepG2-NTCP cell line, HBV 3000 Geq/cell; for activity at 20 µM: Hepatitis B virus, read-out: relative replication rate of quantified HBeAg DNA to the negative control group (Mock), 20 µM, HepG2-NTCP cell line, HBV 3000 Geq/cell
Method: as §1, §2
For the cell pellet obtained by the method of Experimental Example 4-1, Southern blot analysis for measurement of […] DNA was performed using Example 1 (LCA-Ile), Example 44 (LCA-Val), Example 52 (LCA-Tyr), Example 51 (LCA-Ser), Example 55 (LCA-Glu), Example 2 (UDCA-Ile), Example 3 (UDCA-Val), Example 25 (LCA-Val-Trp), Example 10 (DCA-Ile), Comparative Example 1 (LCA), and Comparative Example 2 (UDCA).
First, the cell pellets were pipetted with 100 µl of HEPES lysis buffer (10 mM HEPES, 100 mM NaCl, 1 mM EDTA, 1% NP-40), placed on ice for 20 minutes, and then centrifuged with a centrifuge under the conditions at 4°C and 13000 rpm. After transferring the supernatant only to the new microtube, 4.5 µl of nuclease buffer I (10 mM CaCl2, 12 mM MgCl2, DNase 10 units) was added to carry out a reaction at 37°C for 2 hours, and 40 µl of 26% PEG solution was added, followed by a reaction on ice for 1 hour. After centrifuging with the centrifuge at 4°C and 13000 rpm for 30 minutes, and the supernatant was removed cleanly. After releasing the pellets with 100 µl of nuclease buffer II (10 mM Tris, 8 mM CaCl2, 6mM MgCl2), 287.5 µl of 0.5% SDS buffer (25 mM Tris, 10 mM EDTA, 0.5% SDS, 100 mM NaCl) was added, and 12.5 µl of 20 mg/ml proteinase K was added, followed by a reaction at 37°C for 2 hours. 400 µl of phenol-chloroform-isoamyl alcohol was added, centrifugation was performed at room temperature at 13000 rpm after voltexing, the supernatant was transferred to a new tube, 40 µl of 3 M NaOAc was added, and 800 µl of 100% ethanol was added for inverting, followed by a reaction overnight at -20°C. After performing centrifugation at 4°C and 13000 rpm for 30 minutes, 800 µl of 70% ethanol was added and mixed to the pellet obtained by removing the supernatant, centrifugation was performed at 4°C and 13000 rpm for 10 minutes, and then the supernatant was discarded. The ethanol was dried for 5 minutes to leave only the HBV DNA pellets, and then the pellets were dissolved again in 15 µl of TE buffer (10 mM Tris, 1 mM EDTA). HBV DNA samples were loaded in 1% agarose gel, and electrophoresis was performed. It was then immersed in denature buffer (0.25 N NaOH, 1 M NaCl) for 30 minutes to denature dsDNA of HBV into ssDNA. The DNA in the gel was transferred to a Nylon membrane using a transfer buffer (0.4 M NaOH), the membrane was soaked with a 2X SSC buffer (sigma, cat# 85639) for neutralization, followed by drying in air. The membrane was immersed in a church buffer (10% BSA, 0.5 M EDTA, 1 M NaPi, 20% SDS), and the radioisotopes were hybridized using a Mega prime kit (GE healthcare, RPN1607). After washing three times with washing buffer (2X SSC, 0.1% SDS), measurement was performed using radioisotope measurement equipment, and a relative replication rate (%) to the negative control group (Mock) was calculated and shown.

Row | Structure (SMILES) | HBeAg absorbance level compared with Comparative Example 1 (LCA) and Comparative Example 2 (UDCA) (HBV [1]) | HBeAg absorbance level compared with the negative control group (Mock) (HBV [1]) | amount of HBeAg DNA detected compared to the negative control group (Mock) (HBV [2]) | activity at 20 µM (HBV [2]) [%]
1 | CC[C@@H](C)[C@H](NC(=O)CC[C@@H](C)[C@H]1CC[C@H]2[C@@H]3[C@@H](O)C[C@@H]4C[C@H](O)CC[C@]4(C)[C@H]3CC[C@]12C)C(=O)O [Example 2, (2S,3R)-2-((R)-4-((3R,5S,7S,8R,9S,10S,13R,14S,17R)-3,7-dihydroxy-10,13-dimethyl-hexadecahydro-1H-cyclopenta[a]phenanthren-17-yl)pentanamido)-3-methylpentanoic acid] | lower | relatively lower | relatively less amount | < 80
2 | CC(C)[C@H](NC(=O)CC[C@@H](C)[C@H]1CC[C@H]2[C@@H]3[C@@H](O)C[C@@H]4C[C@H](O)CC[C@]4(C)[C@H]3CC[C@]12C)C(=O)O [Example 3, (S)-2-((R)-4-((3R,5S,7S,8R,9S,10S,13R,14S,17R)-3,7-dihydroxy-10,13-dimethyl-hexadecahydro-1H-cyclopenta[a]phenanthren-17-yl)pentanamido)-3-methylbutanoic acid] | lower | relatively lower | relatively less amount | < 80
3 | CC[C@@H](C)[C@H](NC(=O)CC[C@@H](C)[C@H]1CC[C@H]2[C@@H]3CC[C@@H]4C[C@H](O)CC[C@]4(C)[C@H]3C[C@H](O)[C@]12C)C(=O)O [Example 10, (2S,3R)-2-((R)-4-((3R,5R,8R,9S,10S,12S,13R,14S,17R)-3,12-dihydroxy-10,13-dimethyl-hexadecahydro-1H-cyclopenta[a]phenanthren-17-yl)pentanamido)-3-methylpentanoic acid] | lower | relatively lower | relatively less amount | < 80
4 | CC(C)[C@H](NC(=O)CC[C@@H](C)[C@H]1CC[C@H]2[C@@H]3CC[C@@H]4C[C@H](O)CC[C@]4(C)[C@H]3CC[C@]12C)C(=O)N[C@@H](Cc1c[nH]c2ccccc12)C(=O)O [Example 25, (S)-2-((S)-2-((R)-4-((3R,5R,8R,9S,10S,13R,14S,17R)-3-hydroxy-10,13-dimethyl-hexadecahydro-1H-cyclopenta[a]phenanthren-17-yl)pentanamido)-3-methylbutanamido)-3-(1H-indol-3-yl)propanoic acid] |  |  | relatively less amount | 
5 | CC(C)[C@H](NC(=O)CC[C@@H](C)[C@H]1CC[C@H]2[C@@H]3CC[C@@H]4C[C@H](O)CC[C@]4(C)[C@H]3CC[C@]12C)C(=O)O [Example 44, (S)-2-((R)-4-((3R,5R,8R,9S,10S,13R,14S,17R)-3-hydroxy-10,13-dimethyl-hexadecahydro-1H-cyclopenta[a]phenanthren-17-yl)pentanamido)-3-methylbutanoic acid] | lower | relatively lower | relatively less amount | < 80
6 | C[C@H](CCC(=O)N[C@@H](CO)C(=O)O)[C@H]1CC[C@H]2[C@@H]3CC[C@@H]4C[C@H](O)CC[C@]4(C)[C@H]3CC[C@]12C [Example 51, (S)-3-hydroxy-2-((R)-4-((3R,5R,8R,9S,10S,13R,14S,17R)-3-hydroxy-10,13-dimethyl-hexadecahydro-1H-cyclopenta[a]phenanthren-17-yl)pentanamido)propanoic acid] |  | relatively lower |  | 
7 | C[C@H](CCC(=O)N[C@@H](Cc1ccc(O)cc1)C(=O)O)[C@H]1CC[C@H]2[C@@H]3CC[C@@H]4C[C@H](O)CC[C@]4(C)[C@H]3CC[C@]12C [Example 52, (S)-2-((R)-4-((3R,5R,8R,9S,10S,13R,14S,17R)-3-hydroxy-10,13-dimethyl-hexadecahydro-1H-cyclopenta[a]phenanthren-17-yl)pentanamido)-3-(4-hydroxyphenyl)propanoic acid] |  |  | relatively less amount | < 80
8 | C[C@H](CCC(=O)N[C@@H](CCC(=O)O)C(=O)O)[C@H]1CC[C@H]2[C@@H]3CC[C@@H]4C[C@H](O)CC[C@]4(C)[C@H]3CC[C@]12C [Example 55, (S)-2-((R)-4-((3R,5R,8R,9S,10S,13R,14S,17R)-3-hydroxy-10,13-dimethyl-hexadecahydro-1H-cyclopenta[a]phenanthren-17-yl)pentanamido)pentanedioic acid] |  |  | relatively less amount | 
